From patent publication US20200291018A1, “TAM KINASE INHIBITORS” (SYROS PHARMACEUTICALS, INC., priority 2017, published 2020)

Legend:
Type in all cases: biochemical
AXL = target: T1, AXL (Homo sapiens, UniProt P30530); assay: TR-FRET kinase activity assay, AXL; settings: ATP at Km, 60 minutes
T1 sequence (P30530 26-894): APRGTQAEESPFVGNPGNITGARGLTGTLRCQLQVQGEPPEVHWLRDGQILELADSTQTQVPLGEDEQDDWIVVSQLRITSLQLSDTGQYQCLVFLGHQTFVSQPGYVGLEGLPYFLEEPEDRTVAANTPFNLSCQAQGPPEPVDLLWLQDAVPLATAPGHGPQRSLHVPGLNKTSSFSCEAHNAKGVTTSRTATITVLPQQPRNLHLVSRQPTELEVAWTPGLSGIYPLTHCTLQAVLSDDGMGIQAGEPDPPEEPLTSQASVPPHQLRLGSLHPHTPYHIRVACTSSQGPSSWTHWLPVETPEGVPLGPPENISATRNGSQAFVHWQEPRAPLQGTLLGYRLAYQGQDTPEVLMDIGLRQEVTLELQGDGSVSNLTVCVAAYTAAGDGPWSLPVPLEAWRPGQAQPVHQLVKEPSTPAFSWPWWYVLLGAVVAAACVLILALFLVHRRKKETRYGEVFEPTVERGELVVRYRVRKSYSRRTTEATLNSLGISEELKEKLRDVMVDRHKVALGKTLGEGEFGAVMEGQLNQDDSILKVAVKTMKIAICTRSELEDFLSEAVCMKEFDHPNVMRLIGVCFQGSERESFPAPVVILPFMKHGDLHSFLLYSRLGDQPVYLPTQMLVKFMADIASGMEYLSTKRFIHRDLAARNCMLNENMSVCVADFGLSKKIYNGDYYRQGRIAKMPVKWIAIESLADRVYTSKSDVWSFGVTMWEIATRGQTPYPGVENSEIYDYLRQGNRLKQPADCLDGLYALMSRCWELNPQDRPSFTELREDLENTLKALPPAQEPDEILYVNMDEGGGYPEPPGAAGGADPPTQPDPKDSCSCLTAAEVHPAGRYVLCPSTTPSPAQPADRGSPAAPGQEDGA
Experimental: (§1) IC50 values for compound inhibition of AXL, FLT3, MERTK and TYRO3 activity were determined using a TR-FRET activity assay. A peptide substrate with a fluorescent label is phosphorylated on a tyrosine by each enzyme, where the now phosphorylated product is bound by a Europium-labeled antibody specific to that phosphorylation site. The proximity between the antibody and the substrate gives a signal known as TR-FRET. As the enzyme is inhibited by compound, less phosphorylated peptide product is made, causing a decrease in overall signal.
(§2) Activity assays were performed in a 384-well, small volume, black microplates in an active enzyme volume of 10 uL and final developed volume of 20 uL. Final assay conditions are 50 mM HEPES pH 7.5, 10 mM MgCl2, 1 mM EGTA, 0.01% Brij 35 and 1 mM DTT, all at RT. Enzyme, substrate-labeled peptide and compound are mixed, and then the reaction is initiated with the addition of ATP at Km concentration for each enzyme. The reaction is allowed to run 60 minutes and then quenched with a 12.5 mM EDTA (ethylenediamine tetraacetic acid) solution. The plate is then developed with the addition of Europium-labeled antibody for a final volume of 20 uL and is then incubated for 30 minutes in darkness. Plates are read in a PHERASTAR® plate reader. Data are analyzed in GraphPad PRISM.

FLT3 = target: T2, FLT3 (Homo sapiens, UniProt P36888); assay: TR-FRET kinase activity assay, FLT3; settings: ATP at Km, 60 minutes
T2 sequence (P36888 27-993): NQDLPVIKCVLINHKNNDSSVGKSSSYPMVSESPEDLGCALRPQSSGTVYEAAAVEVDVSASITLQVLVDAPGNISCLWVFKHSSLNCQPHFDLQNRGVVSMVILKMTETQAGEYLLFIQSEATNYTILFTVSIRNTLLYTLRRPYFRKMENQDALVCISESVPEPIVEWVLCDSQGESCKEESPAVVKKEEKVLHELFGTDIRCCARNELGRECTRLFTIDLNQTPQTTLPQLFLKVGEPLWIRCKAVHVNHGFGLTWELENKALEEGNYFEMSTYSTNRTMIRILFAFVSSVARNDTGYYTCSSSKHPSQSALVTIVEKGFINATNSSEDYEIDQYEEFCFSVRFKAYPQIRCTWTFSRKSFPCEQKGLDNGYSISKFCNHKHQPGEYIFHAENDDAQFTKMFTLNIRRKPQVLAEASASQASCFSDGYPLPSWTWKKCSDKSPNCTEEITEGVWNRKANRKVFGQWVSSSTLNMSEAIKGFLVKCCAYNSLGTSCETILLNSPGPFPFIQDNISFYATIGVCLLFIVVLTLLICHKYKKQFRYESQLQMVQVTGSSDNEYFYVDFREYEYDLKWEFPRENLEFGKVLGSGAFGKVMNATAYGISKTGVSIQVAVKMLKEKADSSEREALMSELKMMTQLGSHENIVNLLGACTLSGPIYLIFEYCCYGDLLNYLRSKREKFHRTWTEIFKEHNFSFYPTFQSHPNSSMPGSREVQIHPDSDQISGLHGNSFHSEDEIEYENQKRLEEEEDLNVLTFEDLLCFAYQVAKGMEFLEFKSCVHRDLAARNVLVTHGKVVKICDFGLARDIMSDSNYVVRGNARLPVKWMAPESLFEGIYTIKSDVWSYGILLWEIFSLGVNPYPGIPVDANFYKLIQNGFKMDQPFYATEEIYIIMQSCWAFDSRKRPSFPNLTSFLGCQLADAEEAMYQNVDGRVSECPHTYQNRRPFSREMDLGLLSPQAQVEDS
Experimental: as §1, §2

MERTK = target: T3, MERTK (Homo sapiens, UniProt Q12866); assay: TR-FRET kinase activity assay, MERTK; settings: for IC50: TR-FRET activity assay, ATP at Km, 60 minutes, read-out: Mer IC50; for Mer/Flt3 ratio (FLT3 IC50/Mer IC50): ratio calculated as FLT3 IC50/Mer IC50
T3 sequence (Q12866 21-999): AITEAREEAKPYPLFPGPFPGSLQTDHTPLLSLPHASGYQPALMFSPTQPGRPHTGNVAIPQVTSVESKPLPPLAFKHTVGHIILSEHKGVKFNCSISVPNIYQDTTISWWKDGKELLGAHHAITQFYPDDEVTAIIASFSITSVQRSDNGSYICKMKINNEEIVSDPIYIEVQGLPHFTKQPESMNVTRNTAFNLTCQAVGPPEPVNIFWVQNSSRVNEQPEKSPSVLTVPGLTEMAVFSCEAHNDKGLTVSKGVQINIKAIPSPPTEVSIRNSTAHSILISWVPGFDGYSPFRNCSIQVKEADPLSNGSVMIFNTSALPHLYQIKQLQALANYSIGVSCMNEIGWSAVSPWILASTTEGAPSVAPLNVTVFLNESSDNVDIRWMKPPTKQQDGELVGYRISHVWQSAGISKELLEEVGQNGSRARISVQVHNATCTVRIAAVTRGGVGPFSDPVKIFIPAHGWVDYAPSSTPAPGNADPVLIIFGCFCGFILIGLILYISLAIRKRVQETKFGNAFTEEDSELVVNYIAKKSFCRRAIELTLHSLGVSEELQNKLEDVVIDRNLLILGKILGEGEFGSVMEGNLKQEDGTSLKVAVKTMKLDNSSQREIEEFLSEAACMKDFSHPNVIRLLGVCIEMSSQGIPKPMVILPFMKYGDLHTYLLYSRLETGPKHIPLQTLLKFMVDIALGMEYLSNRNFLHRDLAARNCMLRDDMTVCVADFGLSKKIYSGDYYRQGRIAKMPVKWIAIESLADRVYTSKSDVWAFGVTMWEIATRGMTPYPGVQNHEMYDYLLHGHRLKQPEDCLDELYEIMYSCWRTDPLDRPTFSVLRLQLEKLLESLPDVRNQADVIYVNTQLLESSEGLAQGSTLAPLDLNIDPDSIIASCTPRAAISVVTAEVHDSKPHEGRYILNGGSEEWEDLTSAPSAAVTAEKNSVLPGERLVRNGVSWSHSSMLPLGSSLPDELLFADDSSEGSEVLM
Experimental: as §1, §2

IC50 (AXL) [µM]	IC50 (FLT3) [µM]	IC50 (MERTK) [µM]	Mer/Flt3 ratio (FLT3 IC50/Mer IC50) (MERTK)	SMILES
0.1 to 1	≤ 0.1	≤ 0.1	+++ (a ratio of >100)	CCCCNc1ncc2c(NC3CCN(C)CC3)ncc([C@H]3CC[C@H](O)CC3)c2n1 [Compound 114]
1 to 10	≤ 0.1	≤ 0.1	+ (a ratio of >2.0 and <10)	CCCCNc1ncc2c(Oc3ccc(F)cc3)ncc([C@H]3CC[C@H](O)CC3)c2n1 [Compound 115]
0.1 to 1	1 to 10	0.1 to 1	++ (a ratio of between 10 and 100)	COCC(C)Nc1ncc2c(=O)n(C3CCN(C)CC3)cc([C@H]3CC[C@H](O)CC3)c2n1 (some centres unmarked) [Compound 118]
0.1 to 1	1 to 10	≤ 0.1	+++ (a ratio of >100)	CCCCC[C@H](C)Nc1ncc2c(OC3CCNCC3)ncc([C@H]3CC[C@H](O)CC3)c2n1 [Compound 121]
0.1 to 1	≤ 0.1	1 to 10	NS (a ratio of ≤2.0)	CCCCNc1ncc2c(N(C)C)ncc([C@H]3CC[C@H](O)CC3)c2n1 [Compound 123]
0.1 to 1	1 to 10	≤ 0.1	++ (a ratio of between 10 and 100)	CC[C@H](C)Nc1ncc2c(OCC34CCC(N)(CC3)CC4)ncc([C@H]3CC[C@H](O)CC3)c2n1 [Compound 252]

The next lines start with the molecule.

SMILES	IC50 (AXL) [µM]	IC50 (FLT3) [µM]	IC50 (MERTK) [µM]	Mer/Flt3 ratio (FLT3 IC50/Mer IC50) (MERTK)
CCCCNc1ncc2c(=O)n(Cc3ccc(F)cc3)cc([C@H]3CC[C@H](O)CC3)c2n1 [Compound 105]	0.1 to 1	0.1 to 1	≤ 0.1	+ (a ratio of >2.0 and <10)
CCCCNc1ncc2c(=O)n(C3CCOCC3)cc([C@H]3CC[C@H](O)CC3)c2n1 [Compound 106, 2-(butylamino)-8-(4-hydroxycyclohexyl)-6-tetrahydropyran-4-yl-pyrido[4,3-d]pyrimidin-5-one]	0.1 to 1	0.1 to 1	≤ 0.1	+ (a ratio of >2.0 and <10)
COCC(COC)Nc1ncc2c(=O)n(C3CCNCC3)cc([C@H]3CC[C@H](O)CC3)c2n1 [Compound 110]	1 to 10	1 to 10	1 to 10	NS (a ratio of ≤2.0)
COCC(C)Nc1ncc2c(=O)n(C3CCNCC3)cc(C3CCC(O)CC3)c2n1 (centres unmarked) [Compound 111, 8-((1r,4r)-4-hydroxycyclohexyl)-2-((1-methoxypropan-2-yl)amino)-6-(piperidin-4-yl)pyrido[4,3-d]pyrimidin-5(6H)-one]	0.1 to 1	1 to 10	≤ 0.1	+++ (a ratio of >100)
CCCCC[C@H](C)Nc1ncc2c(OC3CCOCC3)ncc([C@H]3CC[C@H](O)CC3)c2n1 [Compound 113]	0.1 to 1	1 to 10	≤ 0.1	+++ (a ratio of >100)
